Laboratory results: patent US20120149080A1, “YEAST PRODUCTION CULTURE FOR THE PRODUCTION OF BUTANOL” (Butamax(TM) Advanced Biofuels LLC, priority 2010, published 2012)

Experiments:
Assay type in all cases: cell-based
[1] = tested on: Saccharomyces cerevisiae PNY0614; assay: Glucose consumption rate in high cell density culture in YPD; settings: about 3.9 gdcw/L
Excerpt: (§1) S. cerevisiae strains used were PNY0569 CEN.PK122 (MATa MAL2-8c SUC2/MATalpha MAL2-8c SUC2) and PNY0571 (CEN.PK 113-7D MATa MAL2-8c SUC2), obtained from Centraalbureau voor Schimmelcultures, Fungal and Yeast Collection (Netherlands) as well as PNY0602 and PNY0614. PNY0602 and PNY0614 were isolated from a mutagenized culture of PNY0571. PNY0571 (CEN.PK 113-7D) was subjected to 10 rounds of chemical mutagenesis with N-methyl-N′-nitro-N-nitrosoguanidine (NTG) and ethylmethane sulfonate (EMS) using standard methods (Barbour, L., M. Hanna and W. Xiao. 2006. Mutagenesis, p. 121-127. In W. Xiao (ed.), Yeast Protocols, Second Edition. Humana Press, NJ). Cells were grown overnight in 10 ml of YPD at 30° C. with shaking. The overnight culture was centrifuged, and the pellet was resuspended in 50 mM potassium phosphate buffer, pH 7.0. The cells were again centrifuged and resuspended in 10 ml of the same buffer. A portion of the resuspended cells (2.5 ml) was transferred to a plastic 15 ml screw cap centrifuge tube, and the cells were treated with NTG (10 μg/ml final concentration) or EMS (3% w/v) for 40 minutes at 30° C. without shaking. The mutagen was inactivated by addition of an equal volume of filter sterilized 10% (w/v) sodium thiosulfate. The treated cells were centrifuged and resuspended in water two times. The treatment protocol involved repeated cycles of treating yeast cells with one of the mutagens (e.g., NTG), allowing the surviving cells to grow out overnight in YPD with 1% isobutanol, and then treating the overnight culture with the other mutagen (e.g., EMS). After the fifth cycle (i.e., a total of ten treatments with mutagen), cells were screened for isobutanol tolerance. PNY0602 was isolated after prolonged (24 h) exposure to 3.0% isobutanol. PNY0614 was isolated after 5 cycles of repeated freezing and thawing of the mutagenized culture by resuspending mutagenized cells in distilled water and transferring the cells to dry-ice ethanol bath and a 37° C. water bath for 20 minutes each.
(§2) Glucose consumption rates in the presence of isobutanol in YPD were also determined when the cell concentration was about 8 O.D. (about 3.9 gdcw/L). Saccharomyces cerevisiae strains PNY0571, PNY0602 and PNY0614 were plated from a freezer vial onto YPD agar (Teknova, Hollister, Calif.; Cat. #Y1000) and incubated overnight at 30° C. Cells from the YPD plate were inoculated into a 25 ml pre-culture of YPD broth (Teknova, Hollister, Calif.; Cat. #Y5000) with an initial OD600 of 0.06 to 0.08, and this culture was grown for 7 hours in an air shaker at 30° C. An aliquot of the pre-culture was inoculated into 200 ml of YPD broth with an initial OD600 of 0.06 to 0.08, and this culture was incubated with aeration at 30° C. for approximately 17 hours. The optical density of the culture was determined, the culture was centrifuged and the cells were resuspended in fresh YPD broth to yield an OD600 of 8. At this point, an aliquot of 10 ml of the culture was used for a dry cell weight determination, which gave dry cell weight in the range of 3.89 gdcw/L.
(§3) 20 ml cultures were transferred to flasks that contained 0.0%, 0.5%, 0.75%, 1.0%, 1.25%, 1.5%, 1.75%, 2.0% and 2.5% isobutanol. Time of addition of cells was referred to as 0 hours. At various times samples (500 to 700 ul) were transferred to a tube containing an equal volume of 10% TCA. Samples were centrifuged and glucose determined in the YSI glucose analyzer (YSI 2700 Select).

[2] = tested on: Saccharomyces cerevisiae PNY0602; assay: as above; settings: about 3.9 gdcw/L
Excerpt: as §1, §2, §3

[3] = tested on: Saccharomyces cerevisiae PNY0571; assay: as above; settings: about 3.9 gdcw/L
Excerpt: as §1, §2, §3

[4] = tested on: Saccharomyces cerevisiae BY4743; assay: Glucose utilization rate in high cell density culture in YPD
Experimental: Saccharomyces cerevisiae BY4743 was plated from a freezer vial onto YPD agar (Teknova, Hollister, Calif.; Cat. #Y1000) and incubated overnight at 30° C. Cells from the YPD plate were inoculated into a 25 ml pre-culture of YPD broth (Teknova, Hollister, Calif.; Cat. #Y5000) with an initial OD600 of 0.06 to 0.08, and this culture was grown for 7 hours in an air shaker at 30° C. An aliquot of the pre-culture was inoculated into 200 ml of YPD broth with an initial OD600 of 0.06 to 0.08, and this culture was incubated with aeration at 30° C. for approximately 17 hours. The optical density of the culture was determined, the culture was centrifuged and the cells were resuspended in fresh YPD broth to yield an OD600 of 8. […] Time of addition of cells was referred to as 0 hours. At various times, samples (1.5 ml) were withdrawn and centrifuged at 10,000 rpm for 2 minutes in a microfuge (Sorvall Biofuge pico). […] YSI, Inc., Yellow Springs, Ohio). Glucose consumption rates in the presence of isobutanol were also determined when the cell concentration was 18 gdcw/L or 24 gdcw/L. Cells from the YPD plate were inoculated into a 25 ml pre-culture of YPD broth (Teknova, Hollister, Calif. Cat. #Y5000) with an initial OD600 of 0.06 to 0.08, and this culture was grown for 7 hours in an air shaker at 30° C. […] The optical density of the culture was determined, the culture was centrifuged and the cells were resuspended in fresh YPD broth to yield an OD600 of 38 (18 gdcw/L). […] The experiment was repeated except that the starting OD600 was 49.1 (24 gdcw/L). […] The results for BY4743 are graphed in FIG. 4.

[5] = 1.5% isobutanol, 3.8 and 24 gdcw/L cultures

CC(C)CO [Isobutanol, isobutanol]
Glucose consumed per gdcw per hour ([1]; PNY0614, 0.5% isobutanol): 2.9 per gdcw per hour
Glucose consumed per gdcw per hour ([1]; PNY0614, 0.75% isobutanol): 2.8 per gdcw per hour
Glucose consumed per gdcw per hour ([1]; PNY0614, 1% isobutanol): 2.6 per gdcw per hour
Glucose consumed per gdcw per hour ([1]; PNY0614, 1.5% isobutanol): 1.4 per gdcw per hour
Glucose consumed per gdcw per hour ([1]; PNY0614, 1.75% isobutanol): 1.0 per gdcw per hour
Glucose consumed per gdcw per hour ([1]; PNY0614, 2% isobutanol): 0.8 per gdcw per hour
Glucose consumed per gdcw per hour ([1]; PNY0614, 2.5% isobutanol): 0.4 per gdcw per hour
Glucose consumed per gdcw per hour ([2]; PNY0602, 0.5% isobutanol): 3.0 per gdcw per hour
Glucose consumed per gdcw per hour ([2]; PNY0602, 0.75% isobutanol): 2.9 per gdcw per hour
Glucose consumed per gdcw per hour ([2]; PNY0602, 1% isobutanol): 2.7 per gdcw per hour
Glucose consumed per gdcw per hour ([2]; PNY0602, 1.5% isobutanol): 1.5 per gdcw per hour
Glucose consumed per gdcw per hour ([2]; PNY0602, 1.75% isobutanol): 1.1 per gdcw per hour
Glucose consumed per gdcw per hour ([2]; PNY0602, 2% isobutanol): 0.9 per gdcw per hour
Glucose consumed per gdcw per hour ([2]; PNY0602, 2.5% isobutanol): 0.5 per gdcw per hour
Glucose consumed per gdcw per hour ([3]; PNY0571, 0.5% isobutanol): 2.1 per gdcw per hour
Glucose consumed per gdcw per hour ([3]; PNY0571, 0.75% isobutanol): 2.0 per gdcw per hour
Glucose consumed per gdcw per hour ([3]; PNY0571, 1% isobutanol): 1.9 per gdcw per hour
Glucose consumed per gdcw per hour ([3]; PNY0571, 1.5% isobutanol): 1.0 per gdcw per hour
Glucose consumed per gdcw per hour ([3]; PNY0571, 1.75% isobutanol): 0.8 per gdcw per hour
Glucose consumed per gdcw per hour ([3]; PNY0571, 2% isobutanol): 0.6 per gdcw per hour
Glucose consumed per gdcw per hour ([3]; PNY0571, 2.5% isobutanol): 0.3 per gdcw per hour
calculated rate of glucose utilization ([4]; 1% isobutanol, high cell density cultures): at least 1.4 gram per gdcw per hour
glucose consumption rate [4, 5]: about 1.1 g/gdcw/h
glucose consumption rate, % of the control rate [4, 5]: approximately 50%
rate of glucose utilization ([4]; 1.5% isobutanol, 3.8 gdcw/L and 24 gdcw/L cultures): at least 1 gram per gdcw per hour
rate of glucose utilization ([4]; 2% isobutanol, high cell density cultures): at least 0.5 gram per gdcw per hour
rate of glucose utilization ([4]; 2.5% isobutanol, high cell density cultures): at least 0.4 gram per gdcw per hour
rate of glucose utilization ([4]; 3% isobutanol, high cell density cultures): at least 0.2 gram per gdcw per hour
